Among the test systems are SN12C renal; RXF 393 renal; CAKI-1 renal; UO-31 renal; TK-10 renal; HCC-2998 colon; K-562 leukemia; SK-MEL-28 melanoma; BT-549 breast; UACC-62 melanoma; SF-539 CNS.
Assay in all cases: NCI anticancer screen, dose series, 48 h

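Cells were grown in 96-well plates and exposed to each compound for 48 hours at five concentrations; endpoints were interpolated linearly between bracketing concentrations, or set to the highest concentration if not reached. The concentration for full growth arrest is given as TGI.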 A value given as a limit tells only on which side of the number the result lay.

For the molecule `CC(C(=O)ON1C(=O)CCC1=O)c1ccc(C(=O)c2ccccc2)s1` (stereo not drawn), the TGI with SN12C renal, with RXF 393 renal, with CAKI-1 renal, in the assay on UO-31 renal, with TK-10 renal and in the assay on HCC-2998 colon was over 100 µM throughout. Also, the TGI in the assay with K-562 leukemia, in the assay on SK-MEL-28 melanoma, in the assay on BT-549 breast and with UACC-62 melanoma was over 100 µM each time.

Consider `CC(C)CCC[C@@H](C)[C@H]1CCC2C3CC=C4C[C@@H](Oc5c6ccccc6nc6ccccc56)CCC4C3CCC21` (stereo partly drawn), for which the TGI with SN12C renal, in the assay with SF-539 CNS, in the assay with RXF 393 renal, with CAKI-1 renal, in the assay on UO-31 renal and with TK-10 renal was over 50 µM each time. The TGI in the assay on K-562 leukemia, in the assay on SK-MEL-28 melanoma, with BT-549 breast and with UACC-62 melanoma was over 50 µM throughout.

Turning to `COC(=O)c1cc(NC(=O)c2cc(NC(=O)c3cc([N+](=O)[O-])cn3C)cn2C)cn1C`, the TGI in the assay on SN12C renal is over 100 µM; in the assay on SF-539 CNS, over 100 µM; with RXF 393 renal it was over 100 µM; in the assay on CAKI-1 renal, over 100 µM; with UO-31 renal, over 100 µM; in the assay on TK-10 renal, 94.7 µM. Besides, the TGI in the assay with K-562 leukemia, in the assay on SK-MEL-28 melanoma, in the assay on BT-549 breast and in the assay on UACC-62 melanoma was over 100 µM throughout.

In the case of `Cc1cc(-c2[nH]c(C(=O)O)cc2I)on1`, the TGI with RXF 393 renal, in the assay on CAKI-1 renal, with UO-31 renal, in the assay on TK-10 renal, with HCC-2998 colon and with K-562 leukemia was over 100 µM throughout. For the same molecule, the TGI in the assay on SK-MEL-28 melanoma, with BT-549 breast and in the assay with UACC-62 melanoma was over 100 µM in each case.

On to `O=c1/c(=C\c2ccccc2)sc2n1C(c1ccccc1)C1(O)CCCCC1N=2` (stereo not drawn), for which the TGI in the assay on SN12C renal, in the assay with CAKI-1 renal, in the assay with UO-31 renal, in the assay on TK-10 renal, in the assay with HCC-2998 colon and in the assay with K-562 leukemia was over 100 µM in each case. Also, the TGI with SK-MEL-28 melanoma, in the assay with BT-549 breast and in the assay with UACC-62 melanoma was over 100 µM each time.

In the case of `CCCCCC(=O)N[C@@H](c1ccccc1)C(O)C(=O)OC1C[C@@]2(O)C(OC(=O)c3ccccc3)C3[C@](C)(C(=O)[C@H](O)C(=C1C)C2(C)C)C(OC1OCC(O)C(O)C1O)C[C@H]1OC[C@@]31OC(C)=O` (stereo partly drawn), the TGI is over 100 µM in the assay with SN12C renal; 5.68 µM in the assay with SF-539 CNS; over 41 µM in the assay with RXF 393 renal; over 100 µM in the assay with UO-31 renal; over 100 µM in the assay with TK-10 renal; 10.5 µM with HCC-2998 colon. The TGI in the assay with K-562 leukemia, in the assay on SK-MEL-28 melanoma, in the assay on BT-549 breast and in the assay on UACC-62 melanoma was over 100 µM each time.

As for `C=CC1ON(Cc2ccccc2)CCc2cc(OC)c(OC)cc21` (stereo not drawn), the TGI in the assay with SN12C renal, in the assay on SF-539 CNS, in the assay with CAKI-1 renal, in the assay on UO-31 renal, in the assay on TK-10 renal and in the assay on HCC-2998 colon was over 100 µM throughout. For the same molecule, the TGI in the assay on K-562 leukemia, in the assay on SK-MEL-28 melanoma, in the assay on BT-549 breast and with UACC-62 melanoma was over 100 µM each time.

For `COc1ccc(N2C(=Nc3ccccc3)SC(=N/S(=O)(=O)c3ccccc3)/C2=N\S(=O)(=O)c2ccccc2)cc1`, the TGI with SN12C renal came out at 39.8 µM; in the assay with RXF 393 renal, 28.2 µM; in the assay with UO-31 renal it was 55.3 µM; in the assay with TK-10 renal, 52.3 µM; in the assay on HCC-2998 colon it was 42 µM; in the assay with K-562 leukemia, 44.1 µM. In addition, the results for the TGI with SK-MEL-28 melanoma, with BT-549 breast and with UACC-62 melanoma were 33.9 µM, 54.2 µM and 19.8 µM, respectively.

For `CN1C(=S)C(c2ccccc2)Sc2ccccc21` (stereo not drawn), the TGI with SN12C renal, with RXF 393 renal, in the assay with CAKI-1 renal, in the assay on UO-31 renal, in the assay with TK-10 renal and in the assay with K-562 leukemia was over 100 µM each time. Also, the TGI in the assay with SK-MEL-28 melanoma, in the assay on BT-549 breast and in the assay on UACC-62 melanoma was over 100 µM each time.

`CCOC(=O)c1cc(C(=O)c2ccccc2)n2nc(-c3ccc(Cl)cc3)ccc12`: the TGI stood at 78.6 µM in the assay with SN12C renal; 32.7 µM in the assay on RXF 393 renal; 81.3 µM in the assay with CAKI-1 renal; 27.1 µM with UO-31 renal; 47.8 µM in the assay with TK-10 renal; 51 µM in the assay with HCC-2998 colon. The TGI in the assay on K-562 leukemia is over 100 µM; in the assay with SK-MEL-28 melanoma, 68.3 µM; in the assay on BT-549 breast, 35.4 µM; with UACC-62 melanoma it was 39.3 µM.

In the case of `Cn1c(C(C#N)c2nc(Cl)ncc2Br)nc2ccccc21` (stereo not drawn), the TGI in the assay with SN12C renal, with SF-539 CNS, in the assay on RXF 393 renal, in the assay on CAKI-1 renal, with UO-31 renal and in the assay on TK-10 renal was over 100 µM in each case. The TGI with SK-MEL-28 melanoma and with BT-549 breast was over 100 µM in each case.

Regarding `O=C(/C=C/c1ccsc1)c1ccco1`, the TGI stood at 28.6 µM with SN12C renal; 32.5 µM in the assay with SF-539 CNS; 27 µM in the assay with RXF 393 renal; 22.7 µM in the assay with UO-31 renal; 50.5 µM in the assay with TK-10 renal; 26.3 µM in the assay on HCC-2998 colon. Also, the TGI with K-562 leukemia is over 56.4 µM; in the assay on SK-MEL-28 melanoma, 25.4 µM; in the assay on BT-549 breast, 33.2 µM; in the assay with UACC-62 melanoma, 29.2 µM.

As for `c1ccc(C2=Nc3nc4ccccc4n3C(c3ccccc3)C2)cc1` (stereo not drawn), the TGI in the assay on SF-539 CNS, with RXF 393 renal, in the assay with CAKI-1 renal, with UO-31 renal, with TK-10 renal and with K-562 leukemia was over 100 µM each time. Also, the TGI in the assay on SK-MEL-28 melanoma, with BT-549 breast and with UACC-62 melanoma was over 100 µM each time.

Consider `CCOc1cc(NC(C)=O)ccc1C(=O)NN1C(=O)C(Oc2ccccc2)C1c1ccccc1` (stereo not drawn), for which the TGI in the assay with SN12C renal, in the assay with SF-539 CNS, in the assay on RXF 393 renal, with CAKI-1 renal, in the assay with TK-10 renal and in the assay with HCC-2998 colon was over 100 µM in each case. Also, the TGI in the assay on K-562 leukemia, in the assay with SK-MEL-28 melanoma, in the assay with BT-549 breast and with UACC-62 melanoma was over 100 µM throughout.

For the origin of these results see PubChem BioAssay (NCI).
